Results: patent US20200370022A1, “MALIGNANT HEMATOPOIETIC CELL MICROCOMPARTMENT AND METHOD FOR PREPARING SUCH A MICROCOMPARTMENT” (UNIVERSITE DE BORDEAUX, priority 2017, published 2020)
≈ marks a conversion by molar mass, not a printed value.

Tested on: DLBCL SUDHL4 cells
Assay: CellTiter-Glo 3D cell viability (intracellular ATP) after 48 h drug treatment, 2D suspension vs 3D microcompartments
Assay type: cell-based
Conditions: Homo sapiens, SU-DHL-4, 48 h
Method: FIG. 11: Comparison of the cytotoxic effects of doxorubicin and of etoposide on DLBCL SUDHL4 cells grown in 2D (suspension) or in 3D ± ECM ± Resto. Cells or spheroids at D7 post-encapsulation are treated for 48 h with drugs. At the end of the treatment, cell viability is measured using the CellTiter-Glo® 3D Cell Viability Assay Kit (Promega).
As shown above, drug diffusion is altered in the 3D structures according to the invention. The purpose of the present experiment is to verify whether this alteration is correlated with chemoresistance. For this purpose, the efficacy of two conventional chemotherapies (doxorubicin and etoposide) was tested in parallel on cells grown in suspension (2D) and on cell clusters from cellular microcompartments according to the invention, containing lymphomatous cells alone or in the presence of ECM, with or without Resto stromal cells, treated with increasing concentrations of these chemotherapy molecules.
After 48 h of incubation, cell survival was assessed by measuring intracellular ATP using the CellTiter-Glo® 3D Cell Viability Assay Kit (Promega).

[1] = 3D (lymphomatous cells alone), SUDHL4, D7 post-encapsulation, 48 h
[2] = 3D + ECM + Resto, SUDHL4, D7 post-encapsulation, 48 h
[3] = 3D + ECM, SUDHL4, D7 post-encapsulation, 48 h

Row | Compound | IC50 (2D (suspension), SUDHL4, 48 h) | IC50 [1] | IC50 [2] | IC50 [3]
1 | COc1cccc2c1C(=O)c1c(O)c3c(c(O)c1C2=O)C[C@@](O)(C(=O)CO)C[C@@H]3O[C@H]1C[C@H](N)[C@H](O)[C@H](C)O1 [Doxorubicin, doxorubicin] | 0.09 µg/mL (≈ 0.166 µM) | 0.4 µg/mL (≈ 0.736 µM) | 0.4 µg/mL | 0.4 µg/mL
2 | COc1cc([C@@H]2c3cc4c(cc3[C@@H](O[C@@H]3O[C@@H]5CO[C@@H](C)O[C@H]5[C@H](O)[C@H]3O)[C@H]3COC(=O)[C@H]23)OCO4)cc(OC)c1O [Etoposide, etoposide] | 3.2 µg/mL (≈ 5.44 µM) | 4.4 µg/mL (≈ 7.48 µM) | 7 µg/mL | 9.3 µg/mL
